Source: publication PMC9823331, “Permeability of New Antifungal Fluconazole Derivatives through a Lipophilic Membrane: Experiment and Modeling” (Molecules, 2023)

Columns and labels:
[1] = design: method as in PMID 33713781; conditions: cited from earlier work
[2] = system: C. parapsilosis ATCC 22019; design: method as in earlier work; conditions: cited from earlier work
[3] = Distribution in the 1-octanol/buffer pH 7.4 system; format: physicochemical; conditions: calculated by Henderson–Hasselbalch equation
[4] = Membrane permeability assay through the PermeaPad barrier (Franz diffusion cell); format: in vitro ADME; conditions: buffer pH 7.4, 37 °C, values are Papp multiplied by 10^5, read-out: Papp⋅10^5, apparent permeability coefficient
From the text: A vertical-type Franz diffusion cell (PermeGear, Inc., Hellertown, PA, USA) was used to measure the permeability of the studied compounds. The biomimetic lipophilic PermeaPad barrier (PHABIOC, Germany, www.permeapad.com, accessed on 20 May 2021) fully described by di Cagno et al. was employed in the present study to simulate the morphology and properties of the biologic membranes. This membrane was chosen because of its advantageous properties and user friendliness. PermeaPad belongs to cell-free permeation systems. It is composed of two cellulose membranes with a thin layer of phosphatidylcholine (S-100) between them. […]
Firstly, the donor chamber was filled with the donor solution of the tested compound in buffer pH 7.4, then the PermeaPad barrier was mounted between the donor and receptor parts of the diffusion cell (0.785 cm^2 effective surface area) carefully avoiding the air bubbles (which can minimize the active area of the membrane, thus, slowing the permeation). […] The sample solution concentrations were measured spectrophotometrically (Spectramax 190; Molecular Devices, Molecular Devices Corporation, San Jose, CA, USA) in 96-well UV black plates (Costar) at λ = 270 nm. […]
The apparent permeability coefficient (Papp) was calculated by normalizing the slope (J) by the compound concentration in the donor solution (C0) by the equation:(9) Papp=J/C0 […]

| logK0, distribution coefficient for the uncharged particles [3] | Papp at 5 h [4] [×10⁻⁶ cm/s] | SMILES | logKoct/buf, apparent distribution coefficient in the 1-octanol/buffer pH 7.4 system [1] | log(1/MIC) [2] |
| --- | --- | --- | --- | --- |
| -4.72 |  | O=C(Cn1cnc2c(sc(=S)n2-c2ccc(F)cc2)c1=O)NCC(O)(Cn1cncn1)c1ccc(F)cc1F (centres unmarked) [VI, N-[2-(2,4-difluorophenyl)-2-hydroxy-3-(1,2,4-triazol-1-yl)propyl]-2-[3-(4-fluorophenyl)-7-oxo-2-thioxo-thiazolo[4,5-d]pyrimidin-6-yl]acetamide] |  | -1.51 |
| -4.73 |  | COc1ccccc1-n1c(=S)sc2c(=O)n(CC(=O)NCC(O)(Cn3cncn3)c3ccc(F)cc3F)cnc21 (centres unmarked) [VII, N-[2-(2,4-difluorophenyl)-2-hydroxy-3-(1,2,4-triazol-1-yl)propyl]-2-[3-(2-methoxyphenyl)-7-oxo-2-thioxo-thiazolo[4,5-d]pyrimidin-6-yl]acetamide] | 0.80 | -1.51 |
| -3.95 | 18.8 ± 0.42 | Cc1ccc(-n2c(=S)sc3c(=O)n(CCN4CCN(CC(O)(Cn5cncn5)c5ccc(F)cc5F)CC4)cnc32)cc1 (centres unmarked) [XII, N-[2-[4-[2-(2,4-difluorophenyl)-2-hydroxy-3-(1,2,4-triazol-1-yl)propyl]piperazin-1-yl]ethyl]-2-methyl-3-(p-tolyl)-2-thioxo-thiazolo[4,5-d]pyrimidin-7-one] | 2.90 | 0.30 |

Second part, the compound before the results:

| SMILES | logK0, distribution coefficient for the uncharged particles [3] | Papp at 5 h [4] [×10⁻⁶ cm/s] | logKoct/buf, apparent distribution coefficient in the 1-octanol/buffer pH 7.4 system [1] | log(1/MIC) [2] |
| --- | --- | --- | --- | --- |
| Cc1ccc(-n2c(=S)sc3c(=O)n(CC(O)(Cn4cncn4)c4ccc(F)cc4F)cnc32)cc1 (centres unmarked) [I, N-[2-(2,4-difluorophenyl)-2-hydroxy-3-(1,2,4-triazol-1-yl)propyl]-3-(p-tolyl)-2-thioxo-thiazolo[4,5-d]pyrimidin-7-one] |  |  | 0.79 | -1.51 |
| COc1ccccc1-n1c(=S)sc2c(=O)n(CC(O)(Cn3cncn3)c3ccc(F)cc3F)cnc21 (centres unmarked) [II, N-[2-(2,4-difluorophenyl)-2-hydroxy-3-(1,2,4-triazol-1-yl)propyl]-3-(2-methoxyphenyl)-2-thioxo-thiazolo[4,5-d]pyrimidin-7-one] | -4.66 |  |  | -0.90 |
| O=c1c2sc(=S)n(-c3ccc(F)cc3)c2ncn1CC(O)(Cn1cncn1)c1ccc(F)cc1F (centres unmarked) [III, N-[2-(2,4-difluorophenyl)-2-hydroxy-3-(1,2,4-triazol-1-yl)propyl]-3-(4-fluorophenyl)-2-thioxo-thiazolo[4,5-d]pyrimidin-7-one] | -4.76 |  |  | -1.51 |
| Cc1ccc(-n2c(=S)sc3c(=O)n(CC(=O)NCC(O)(Cn4cncn4)c4ccc(F)cc4F)cnc32)cc1 (centres unmarked) [IV, N-[2-(2,4-difluorophenyl)-2-hydroxy-3-(1,2,4-triazol-1-yl)propyl]-2-[7-oxo-3-(p-tolyl)-2-thioxo-thiazolo[4,5-d]pyrimidin-6-yl]acetamide] | -4.68 |  | 1.27 | -1.51 |
| O=C(Cn1cnc2c(sc(=S)n2-c2ccc(Cl)cc2)c1=O)NCC(O)(Cn1cncn1)c1ccc(F)cc1F (centres unmarked) [V, N-[2-(2,4-difluorophenyl)-2-hydroxy-3-(1,2,4-triazol-1-yl)propyl]-2-[3-(4-chlorophenyl)-7-oxo-2-thioxo-thiazolo[4,5-d]pyrimidin-6-yl]-acetamide] | -4.69 |  |  | -1.51 |
